A short description of assay [1]: Nitric oxide radical scavenging assay (Griess reaction). Conditions: NO radical scavenging. On the procedure: Nitric oxide was generated from sodium nitroprusside and measured by Griess’ reaction following the literature method. The experiment was done in triplicate with ascorbic acid (vitamin C) used as a positive control for the assay. In total, 50 μL of each of the test compounds and the positive control at various concentrations (0.1, 0.5, 1.0, 5.0, and 10.0 μM in methanol) were added to each designated well of the 96 well plate. A total of 50 μL of sodium nitroprusside (10 mM) prepared in saline phosphate buffer (pH = 7.4) was then added to each well and the reaction mixture incubated at room temperature for 3 h. Afterward, 300 μL of the Griess reagent (a mixture of 0.2% N-(1-naphthyl)ethylenediamine dihydrochloride and 2% sulfanilamide in […]) was added to each well and absorbance was read at 546 nm using a Varioskan flash microplate spectrophotometer reader.

In a further assay the target is T1, AChE (Homo sapiens, UniProt P22303).
T1 construct: purchased BioLegend (via Biocom Africa (Pty) Ltd.)
Description: Enzyme kinetic study against AChE (Lineweaver-Burk and Dixon plots). The format is biochemical. The protocol: The AChE and BChE enzyme kinetic studies were performed in triplicate in a 96-well plate following a procedure described in our previous study. Varying concentrations of 2a or 3c (0, 2.5, 3.5, and 5 μM) and AChI or BChI (0.1, 0.5, 2.5, and 5 mM) were used for the kinetic assays. The absorbances were measured after every 1 s for 10 s at a wavelength of 412 nm using a microplate spectrophotometer reader. The Lineweaver–Burk plots (plot of the inverse of velocity (1/v) against the inverse of the substrate concentration (1/[S])) were constructed.

SMILES strings stand for the structures.

T1 sequence (P22303 32-614): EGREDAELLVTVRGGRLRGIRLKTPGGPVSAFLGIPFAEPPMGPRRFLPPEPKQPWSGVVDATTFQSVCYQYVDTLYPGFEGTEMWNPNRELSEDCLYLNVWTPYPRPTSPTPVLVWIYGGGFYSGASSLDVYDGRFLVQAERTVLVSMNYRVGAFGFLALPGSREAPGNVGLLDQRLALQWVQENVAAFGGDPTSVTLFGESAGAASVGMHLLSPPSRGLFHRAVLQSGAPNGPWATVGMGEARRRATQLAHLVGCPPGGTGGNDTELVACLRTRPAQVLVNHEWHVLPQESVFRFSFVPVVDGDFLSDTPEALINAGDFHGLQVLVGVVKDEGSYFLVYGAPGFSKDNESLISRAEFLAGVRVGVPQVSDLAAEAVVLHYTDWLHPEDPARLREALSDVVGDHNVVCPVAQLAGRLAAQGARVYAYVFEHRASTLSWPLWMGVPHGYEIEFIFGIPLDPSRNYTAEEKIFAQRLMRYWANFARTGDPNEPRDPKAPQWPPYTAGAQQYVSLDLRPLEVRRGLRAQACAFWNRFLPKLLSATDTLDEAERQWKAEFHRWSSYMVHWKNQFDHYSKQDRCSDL

`NC(=O)c1cc(/C=C/c2ccccc2)ccc1N` [Compound 2a, (E)-2-Amino-5-styrylbenzamide]: the 50% inhibitory concentration (IC50) in assay [1] is 10.3 ± 0.12 µM. Moreover, the “mode of inhibition AChE” value at AChE was “non-competitive”. In addition, the inhibitory constant (Ki) at AChE (read-out: Ki (Dixon plot) AChE) stood at 1.2 µM.

The record behind these values is paper PMC8145986, “In Vitro Enzymatic and Kinetic Studies, and In Silico Drug-Receptor Interactions, and Drug-Like Profiling of the 5-Styrylbenzamide Derivatives as Potential Cholinesterase and β-Secretase Inhibitors with Antioxidant Properties” (Antioxidants, 2021).
